ChEMBL document CHEMBL4138123, “Design, synthesis and biological evaluation of novel pyrazolochalcones as potential modulators of PI3K/Akt/mTOR pathway and inducers of apoptosis in breast cancer cells” (Eur J Med Chem, 2017)

Assays:
Format in all cases: functional
SF-539 = test: Cytotoxicity against human SF539 cells assessed as cell growth at 1 uM after 48 hrs by sulforhodamine B assay relative to control; details: SF-539, 48 h, read-out: Activity
NCI-H226 [1] = test: Cytotoxicity against human NCI-H226 cells assessed as cell growth at 0.1 uM after 48 hrs by sulforhodamine B assay relative to control; details: NCI-H226, 48 h, read-out: Activity
HCT-116 [2] = test: Cytotoxicity against human HCT116 cells assessed as cell growth at 0.01 uM after 48 hrs by sulforhodamine B assay relative to control; details: HCT-116, 48 h, read-out: Activity
PC-3 [3] = test: Cytotoxicity against human PC3 cells assessed as cell growth at 100 uM after 48 hrs by sulforhodamine B assay relative to control; details: PC-3, 48 h, read-out: Activity
UO-31 [4] = test: Cytotoxicity against human UO31 cells assessed as growth inhibition after 48 hrs by sulforhodamine B assay; details: UO-31, 48 h
A549 = test: Cytotoxicity against human A549/ATCC cells assessed as cell growth at 100 uM after 48 hrs by sulforhodamine B assay relative to control; details: A549, 48 h, read-out: Activity
UACC-257 = test: Cytotoxicity against human UACC257 cells assessed as cell growth at 0.01 uM after 48 hrs by sulforhodamine B assay relative to control; details: UACC-257, 48 h, read-out: Activity
NCI-H460 [5] = test: Cytotoxicity against human NCI-H460 cells assessed as cell growth at 1 uM after 48 hrs by sulforhodamine B assay relative to control; details: NCI-H460, 48 h, read-out: Activity
NCI-H23 = test: Cytotoxicity against human NCI-H23 cells assessed as cell growth at 0.1 uM after 48 hrs by sulforhodamine B assay relative to control; details: NCI-H23, 48 h, read-out: Activity
SW-620 [6] = test: Cytotoxicity against human SW620 cells assessed as cell growth at 0.1 uM after 48 hrs by sulforhodamine B assay relative to control; details: SW-620, 48 h, read-out: Activity
BT-549 = test: Cytotoxicity against human BT549 cells assessed as cell growth at 1 uM after 48 hrs by sulforhodamine B assay relative to control; details: BT-549, 48 h, read-out: Activity
ACHN = test: Cytotoxicity against human ACHN cells assessed as cell growth at 0.1 uM after 48 hrs by sulforhodamine B assay relative to control; details: read-out: Activity
COLO 205 = test: Cytotoxicity against human COLO205 cells assessed as cell growth at 100 uM after 48 hrs by sulforhodamine B assay relative to control; details: COLO 205, 48 h, read-out: Activity
T47D = test: Cytotoxicity against human T47D cells assessed as cell growth at 10 uM after 48 hrs by sulforhodamine B assay relative to control; details: read-out: Activity
MCF7 = test: Cytotoxicity against human MCF7 cells assessed as cell growth at 0.1 uM after 48 hrs by sulforhodamine B assay relative to control; details: MCF7, 48 h, read-out: Activity
K562 = test: Cytotoxicity against human K562 cells assessed as cell growth at 1 uM after 48 hrs by sulforhodamine B assay relative to control; details: K562, 48 h, read-out: Activity
HCC 2998 = test: Cytotoxicity against human HCC2998 cells assessed as growth inhibition after 48 hrs by sulforhodamine B assay; details: HCC 2998, 48 h
PC-3 [7] = test: Cytotoxicity against human PC3 cells assessed as cell growth at 0.1 uM after 48 hrs by sulforhodamine B assay relative to control; details: PC-3, 48 h, read-out: Activity
A498 = test: Cytotoxicity against human A498 cells assessed as cell growth at 100 uM after 48 hrs by sulforhodamine B assay relative to control; details: A498, 48 h, read-out: Activity
NCI-H522 = test: Cytotoxicity against human NCI-H522 cells assessed as cell growth at 0.1 uM after 48 hrs by sulforhodamine B assay relative to control; details: NCI-H522, 48 h, read-out: Activity
DU-145 = test: Cytotoxicity against human DU145 cells assessed as cell growth at 100 uM after 48 hrs by sulforhodamine B assay relative to control; details: DU-145, 48 h, read-out: Activity
KM12 = test: Cytotoxicity against human KM12 cells assessed as cell growth at 10 uM after 48 hrs by sulforhodamine B assay relative to control; details: KM12, 48 h, read-out: Activity
OVCAR-8 [8] = test: Cytotoxicity against human OVCAR8 cells assessed as cell growth at 0.1 uM after 48 hrs by sulforhodamine B assay relative to control; details: OVCAR-8, 48 h, read-out: Activity
SW-620 [9] = test: Cytotoxicity against human SW620 cells assessed as cell growth at 0.01 uM after 48 hrs by sulforhodamine B assay relative to control; details: SW-620, 48 h, read-out: Activity
IGROV-1 = test: Cytotoxicity against human IGROV1 cells assessed as cell growth at 10 uM after 48 hrs by sulforhodamine B assay relative to control; details: IGROV-1, 48 h, read-out: Activity
SNB-19 = test: Cytotoxicity against human SNB19 cells assessed as growth inhibition after 48 hrs by sulforhodamine B assay; details: SNB-19, 48 h; for CC50: read-out: LC50 (the source's name)
SK-MEL-5 = test: Cytotoxicity against human SK-MEL-5 cells assessed as cell growth at 0.1 uM after 48 hrs by sulforhodamine B assay relative to control; details: SK-MEL-5, 48 h, read-out: Activity
HL-60(TB) [10] = test: Cytotoxicity against human HL-60(TB) cells assessed as cell growth at 1 uM after 48 hrs by sulforhodamine B assay relative to control; details: HL-60, 48 h, read-out: Activity
OVCAR-8 [11] = test: Cytotoxicity against human OVCAR8 cells assessed as cell growth at 100 uM after 48 hrs by sulforhodamine B assay relative to control; details: OVCAR-8, 48 h, read-out: Activity
HCT-116 [12] = test: Cytotoxicity against human HCT116 cells assessed as cell growth at 0.1 uM after 48 hrs by sulforhodamine B assay relative to control; details: HCT-116, 48 h, read-out: Activity
HL-60(TB) [13] = test: Cytotoxicity against human HL-60(TB) cells assessed as growth inhibition after 48 hrs by sulforhodamine B assay; details: HL-60, 48 h
UO-31 [14] = test: Cytotoxicity against human UO31 cells assessed as cell growth at 10 uM after 48 hrs by sulforhodamine B assay relative to control; details: UO-31, 48 h, read-out: Activity
SK-OV-3 = test: Cytotoxicity against human SKOV3 cells assessed as growth inhibition after 48 hrs by sulforhodamine B assay; details: SK-OV-3, 48 h
NCI-H460 [15] = test: Cytotoxicity against human NCI-H460 cells assessed as cell growth at 0.1 uM after 48 hrs by sulforhodamine B assay relative to control; details: NCI-H460, 48 h, read-out: Activity
NCI-H226 [16] = test: Cytotoxicity against human NCI-H226 cells assessed as cell growth at 1 uM after 48 hrs by sulforhodamine B assay relative to control; details: NCI-H226, 48 h, read-out: Activity

## COc1cc2c(cc1OC)C(=O)/C(=C/c1cc(-c3ccc4c(c3)OCO4)n[nH]1)C2
SF-539
  growth at 1 µM: 67%
NCI-H226 [1]
  growth at 0.1 µM: 83%
HCT-116 [2]
  growth at 0.01 µM: 105%
PC-3 [3]
  growth at 100 µM: -79%
UO-31 [4]
  GI50: 1.29 µM
  LC50: 5.51 µM
  TGI: 2.67 µM
A549
  growth at 100 µM: -65%
UACC-257
  growth at 0.01 µM: 93%
NCI-H460 [5]
  growth at 1 µM: 82%
NCI-H23
  growth at 0.1 µM: 93%
SW-620 [6]
  growth at 0.1 µM: 99%
BT-549
  growth at 1 µM: 88%
ACHN
  growth at 0.1 µM: 100%
COLO 205
  growth at 100 µM: -88%
T47D
  growth at 10 µM: -90%
MCF7
  growth at 0.1 µM: 89%
K562
  growth at 1 µM: 62%
HCC 2998
  GI50: 1.88 µM
  LC50: 6.29 µM
  TGI: 3.44 µM
PC-3 [7]
  growth at 0.1 µM: 89%
A498
  growth at 100 µM: -97%
NCI-H522
  growth at 0.1 µM: 89%
DU-145
  growth at 100 µM: -88%
KM12
  growth at 10 µM: -87%
OVCAR-8 [8]
  growth at 0.1 µM: 98%
SW-620 [9]
  growth at 0.01 µM: 98%
IGROV-1
  growth at 10 µM: -44%
SNB-19
  GI50: 1.55 µM
  TGI: 2.96 µM
  CC50: 5.63 µM
SK-MEL-5
  growth at 0.1 µM: 93%
HL-60(TB) [10]
  growth at 1 µM: 86%
OVCAR-8 [11]
  growth at 100 µM: -94%
HCT-116 [12]
  growth at 0.1 µM: 105%
HL-60(TB) [13]
  GI50: 2.07 µM
  LC50: > 100 µM
  TGI: 5.59 µM
UO-31 [14]
  growth at 10 µM: -91%
SK-OV-3
  GI50: 2.89 µM
  LC50: 25.2 µM
  TGI: 7.16 µM
NCI-H460 [15]
  growth at 0.1 µM: 101%
NCI-H226 [16]
  growth at 1 µM: 79%

## COc1ccc(-c2cc(/C=C/C(=O)c3ccc(OC)c(OC)c3)[nH]n2)cc1
SF-539
  growth at 1 µM: 66%
NCI-H226 [1]
  growth at 0.1 µM: 90%
HCT-116 [2]
  growth at 0.01 µM: 97%
PC-3 [3]
  growth at 100 µM: -90%
UO-31 [4]
  GI50: 1.17 µM
  LC50: 5.1 µM
  TGI: 2.44 µM
A549
  growth at 100 µM: -45%
UACC-257
  growth at 0.01 µM: 92%
NCI-H460 [5]
  growth at 1 µM: 75%
NCI-H23
  growth at 0.1 µM: 101%
SW-620 [6]
  growth at 0.1 µM: 99%
BT-549
  growth at 1 µM: 85%
ACHN
  growth at 0.1 µM: 96%
COLO 205
  growth at 100 µM: -77%
T47D
  growth at 10 µM: -28%
MCF7
  growth at 0.1 µM: 88%
K562
  growth at 1 µM: 56%
HCC 2998
  GI50: 2.02 µM
  LC50: 7.81 µM
  TGI: 3.97 µM
PC-3 [7]
  growth at 0.1 µM: 91%
A498
  growth at 100 µM: -90%
NCI-H522
  growth at 0.1 µM: 111%
DU-145
  growth at 100 µM: -80%
KM12
  growth at 10 µM: -72%
OVCAR-8 [8]
  growth at 0.1 µM: 89%
SW-620 [9]
  growth at 0.01 µM: 99%
IGROV-1
  growth at 10 µM: -60%
SNB-19
  GI50: 1.88 µM
  TGI: 5.28 µM
  CC50: 19.6 µM
SK-MEL-5
  growth at 0.1 µM: 93%
HL-60(TB) [10]
  growth at 1 µM: 86%
OVCAR-8 [11]
  growth at 100 µM: -66%
HCT-116 [12]
  growth at 0.1 µM: 105%
HL-60(TB) [13]
  GI50: 2.18 µM
  LC50: > 100 µM
  TGI: 6.4 µM
UO-31 [14]
  growth at 10 µM: -96%
SK-OV-3
  GI50: 5.56 µM
  LC50: 43.4 µM
  TGI: 17.1 µM
NCI-H460 [15]
  growth at 0.1 µM: 101%
NCI-H226 [16]
  growth at 1 µM: 76%
